Laboratory results: PMC9265957, “Bioavailability of Rosehip (Rosa canina L.) Infusion Phenolics Prepared by Thermal, Pulsed Electric Field and High Pressure Processing” (Foods, 2022)
Like-named read-outs stand apart in the source and are kept apart here. Values belong to the compound of their own block, whether it stands above or below them.

Columns and labels:
[1] = parameters: method as in doi:10.1111/jfpp.16096; details: rosehip infusions by TT, HPP and PEF, depending on the treatment; cited from earlier work
[2] = parameters: method as in PMID 31100382; details: rats; oral administration; after one hour; cited from earlier work
[3] = parameters: method as in earlier work; details: mice, cited from earlier work
[4] = tested on: Caco-2 cells; assay: Transepithelial transportation of catechin from digests across the Caco-2 monolayer; assay type: in vitro ADME, Human; details: 4 h; digests diluted 1/5
Protocol: The in vitro gastrointestinal digestion was simulated regarding the procedures of Ozkan et al. and Sessa et al., with minor modifications. This assay involves two sequential stages: gastric digestion and bile salt/pancreatin digestion. For the gastric digestion, the samples containing 1.3 mg/mL final concentration of pepsin at pH 2 were placed in a water bath (GFL 1092, Burgwedel, Germany) at 37 °C and 100 rpm for a 2 h incubation period. To simulate intestinal digestion, gastric chyme was mixed with 0.175 mg/mL pancreatin and 1.10 mg/mL bile salts at pH 6.5, and then placed in a water bath at 37 °C and 100 rpm for 2 h incubation. […]
The transport trial was carried out based on Wu et al.. […] TEER values of the cells were determined before the experiment, after the last sampling and 24 h after the incubation period. […]
The quantification of phenolic compounds in rosehip infusions was conducted by UPLC based on Ozkan et al., with minor changes. Digests obtained from apical and basolateral sides were analyzed by a Waters Acquity UPLC system (Waters Co., Milford, MA, USA) combined with a diode array detector (DAD). […] Catechin concentration was determined by using its authentic standard. […] The results were expressed as mg catechin per 100 g dw (dry weight) of rosehip. […]

[5] = parameters: method as in PMID 31100382; details: ex vivo; after one hour; cited from earlier work
[6] = cited from earlier work
[7] = tested on: cellular monolayer; parameters: method as in doi:10.1021/acsomega.8b03499; details: sweet cherry phenolics; cited from earlier work
[8] = parameters: method as in PMID 24191680; details: sour cherry fruit and nectar samples, depending on ingredients and processing; cited from earlier work
[9] = parameters: method as in doi:10.1016/j.jff.2018.10.025; details: rats; after 6 h; cited from earlier work
[10] = parameters: method as in Rodríguez-Roque et al. [11]; details: fruit juice blends, traditional thermal treatment; ref Rodríguez-Roque et al. [11]; cited from earlier work

- Apical Recovery (%) of catechin [4]: 68–69%
Structure (SMILES): O.Oc1cc(O)c2c(c1)O[C@H](c1ccc(O)c(O)c1)[C@@H](O)C2 [catechin, Catechin]
- catechin lost after gastrointestinal digestion [1]: 51.8–61.0%
- maximum concentration in plasma [2]: 120 ± 3.97 ng/mL
- maximum plasma catechin level ([3]; sour mangosteen rind): 1.10 µg/mL
- permeation across the intestinal tissue [5]: 12.5 µg

Structure (SMILES): O=C(O[C@@H]1Cc2c(O)cc(O)cc2O[C@@H]1c1ccc(O)c(O)c1)c1cc(O)c(O)c(O)c1 [epicatechin gallate]
- amounts in plasma with chocolate food matrix ([6]; five healthy 22-year-old women): reduced
- form detected in plasma ([6]; five healthy 22-year-old women): aglycon form

Structure (SMILES): Oc1cc(O)c2c(c1)O[C@H](c1ccc(O)c(O)c1)[C@H](O)C2 [epicatechin]
- amounts in plasma with chocolate food matrix ([6]; five healthy 22-year-old women): no alteration
- form detected in plasma ([6]; five healthy 22-year-old women): conjugated metabolites
- quantity that crossed the cell monolayer [7]: 0.37%
- basolateral side recovery [8]: 1.1–3.8%
- maximum plasma epicatechin concentration ([3]; sour mangosteen peel): 62.03 µg/mL

Structure (SMILES): O=C(O[C@@H]1Cc2c(O)cc(O)cc2O[C@@H]1c1cc(O)c(O)c(O)c1)c1cc(O)c(O)c(O)c1 [epigallocatechin gallate]
- amounts in plasma with chocolate food matrix ([6]; five healthy 22-year-old women): reduced
- form detected in plasma ([6]; five healthy 22-year-old women): aglycon form

Structure (SMILES): Oc1cc(O)c2c(c1)O[C@H](c1cc(O)c(O)c(O)c1)[C@H](O)C2 [epigallocatechin]
- amounts in plasma with chocolate food matrix ([6]; in vivo): no alteration
- form detected in plasma ([6]; in vivo): conjugated metabolites

Structure (SMILES): Oc1cc(O)c2c(c1)OC(c1ccc(O)c(O)c1)C(O)C2 (stereo not drawn) [free catechin]
- bioavailability (plasma catechin values) [9]: 0.241 µM·h

Structure (SMILES): O=C1O[C@H]([C@@H](O)CO)C(O)=C1O [vitamin C]
- bioaccessibility [10]: 11.1%
